Experimental data published in patent US10933045B2, “Intranasal compositions for treatment of neurological and neurodegenerative diseases and disorders” (priority 2014, dated 2021).
Like-named read-outs stand apart in the source and are kept apart here.

How the values were obtained:
acetylcholinesterase = acetylcholinesterase (Homo sapiens, UniProt P22303); conditions: estimated (Gobburu et al. 2001); cited from earlier work
sigma one receptor [1] = molecular target: T1, sigma one receptor (Rattus norvegicus, UniProt Q9R0C9); assay: Dextromethorphan binding studies with rat brain (Klein and Musacchio 1992)
T1 construct: host or cells: rat brain

sigma one receptor [2] = molecular target: T1, sigma one receptor; conditions: read-out: dissociation constant (Kd); binding studies with rat brain; cited from earlier work
[3] = assumed value from literature; cited from earlier work
[4] = cited from earlier work
[5] = Alzheimer's disease patients, 2 mg i.v. dose (Hossain et al. 2002)

T1 sequence (Q9R0C9 whole entry): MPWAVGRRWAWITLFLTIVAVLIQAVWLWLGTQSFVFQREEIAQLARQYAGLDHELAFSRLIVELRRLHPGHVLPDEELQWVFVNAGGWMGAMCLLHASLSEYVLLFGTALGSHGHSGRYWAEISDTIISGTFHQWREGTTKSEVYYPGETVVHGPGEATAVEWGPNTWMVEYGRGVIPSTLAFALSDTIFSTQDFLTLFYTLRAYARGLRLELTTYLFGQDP
Chain of acetylcholinesterase (P22303 32-614): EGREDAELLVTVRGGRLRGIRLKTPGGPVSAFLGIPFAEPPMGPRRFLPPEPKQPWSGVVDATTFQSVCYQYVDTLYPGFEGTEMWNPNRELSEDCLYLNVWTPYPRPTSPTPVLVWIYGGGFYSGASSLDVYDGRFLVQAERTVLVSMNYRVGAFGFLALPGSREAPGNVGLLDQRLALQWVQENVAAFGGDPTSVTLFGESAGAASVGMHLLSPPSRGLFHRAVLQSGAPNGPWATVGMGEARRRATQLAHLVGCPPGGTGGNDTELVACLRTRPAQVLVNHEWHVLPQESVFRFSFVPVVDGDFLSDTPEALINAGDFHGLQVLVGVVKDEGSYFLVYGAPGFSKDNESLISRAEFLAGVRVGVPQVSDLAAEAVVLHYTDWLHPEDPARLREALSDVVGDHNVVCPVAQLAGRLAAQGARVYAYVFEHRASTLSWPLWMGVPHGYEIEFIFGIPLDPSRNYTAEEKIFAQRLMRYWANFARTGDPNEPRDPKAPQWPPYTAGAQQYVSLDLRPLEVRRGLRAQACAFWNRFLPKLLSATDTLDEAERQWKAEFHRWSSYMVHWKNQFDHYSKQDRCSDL

## C[C@@H](c1cccc(O)c1)N(C)C [NAP 226-90, 3-[(1S)-1-(dimethylamino)ethyl]phenol]
acetylcholinesterase
  potency, times less than rivastigmine: 10 times

## COc1ccc2c(c1)[C@]13CCCC[C@@H]1[C@H](C2)N(C)CC3 [dextromethorphan]
Sigma one receptor [1]
  Kd: ~0.0199 µM
Sigma one receptor [2]
  Kd: 0.02 µM
[3]
  systemic clearance: about 23 mL/min/kg

## CCN(C)C(=O)Oc1cccc([C@H](C)N(C)C)c1 [rivastigmine, Rivastigmine]
[4]; Alzheimer's disease patients (Hossain et al. 2002)
  variation of intrinsic clearance (CL): up to 4 fold
[4]; [5]
  CL: 21.6 to 82.8 L/h
  Vz: 53.2 to 227 L
